Experimental data as given in patent US20240358702A1, “CYCLIC UREA KRAS INHIBITORS” (INCYTE CORPORATION, priority 2023, published 2024).

Experiments:
KRAS G12D = KRAS G12D (Homo sapiens, UniProt P01116, G12D); experiment: GDP-GTP exchange assay (bodipy-GDP/GppNHp, SOS1), KRAS G12D; type: biochemical; settings: KRAS_G12D exchange assay IC50; 4 h pre-incubation; value for the most potent isomer quoted
Method: (§1) The inhibitor potency of the exemplified compounds was determined in a fluorescence based guanine nucleotide exchange assay, which measures the exchange of bodipy-GDP (fluorescently labeled GDP) for GppNHp (Non-hydrolyzable GTP analog) to generate the active state of KRAS in the presence of SOS1 (guanine nucleotide exchange factor). Inhibitors were serially diluted in DMSO and a volume of 0.1 μL was transferred to the wells of a black low volume 384-well plate. 5 μL/well volume of bodipy-loaded KRAS G12D diluted to […] in assay buffer (25 mM Hepes pH 7.5, 50 mM NaCl, 10 mM mgCl2 and 0.01% Brij-35) was added to the plate and pre-incubated with inhibitor for 4 h at ambient temperature. Appropriate controls (enzyme with no inhibitor or with a G12D inhibitor) were included on the plate. The exchange was initiated by the addition of a 5 μL/well volume containing 1 mM GppNHp and 300 nM SOS1 in assay buffer. The 10 μL/well reaction concentration of the bodipy-loaded KRAS G12D, GppNHp, and SOS1 were 2.5 nM, 500 uM, and 150 nM, respectively. The reaction plates were incubated at ambient temperature for 2 h, a time estimated for complete GDP-GTP exchange in the absence of inhibitor. For the KRAS G12V mutant, similar guanine nucleotide exchange assays were used with 2.5 nM as final concentration for the bodipy loaded KRAS proteins and 3 h incubation after adding GppNHp-SOS1 mixture. A cyclic peptide described to selectively bind G12D mutant (Sakamoto et al., BBRC 484.3 (2017), 605-611) or internal compounds with confirmed binding were used as positive controls in the assay plates. Fluorescence intensities were measured on a PheraStar plate reader instrument (BMG Labtech) with excitation at 485 nm and emission at 520 nm.
(§2) Either GraphPad prism or Genedata Screener SmartFit was used to analyze the data. The IC50 values were derived by fitting the data to a four parameter logistic equation producing a sigmoidal dose-response curve with a variable Hill coefficient.
(§3) The symbol “t” indicates IC50≤100 nM, “††” indicates IC50>100 nM but ≤1 μM; and “†††” indicates IC50 is >1 μM but ≤5 μM, “††††” indicates IC50 is >5 μM but ≤10 μM. “NA” indicates IC50 not available.

KRAS G12V = KRAS G12V (Homo sapiens, UniProt P01116, G12V); experiment: GDP-GTP exchange assay (bodipy-GDP/GppNHp, SOS1), KRAS G12V; type: biochemical; settings: KRAS_G12V exchange assay IC50, value for the most potent isomer quoted; for IC50: read-out: G12V_exchange
KRAS G12V, sequence (P01116 1-188 isoform P01116-2 G12V): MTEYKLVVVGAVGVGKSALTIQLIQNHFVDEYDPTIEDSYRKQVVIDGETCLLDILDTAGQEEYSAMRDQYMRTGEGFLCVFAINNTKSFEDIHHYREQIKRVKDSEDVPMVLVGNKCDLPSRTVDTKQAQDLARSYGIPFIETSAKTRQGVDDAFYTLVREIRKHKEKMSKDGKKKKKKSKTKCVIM
Method: as §1, §2, §3

KRAS G12D, sequence (P01116 1-188 isoform P01116-2 G12D): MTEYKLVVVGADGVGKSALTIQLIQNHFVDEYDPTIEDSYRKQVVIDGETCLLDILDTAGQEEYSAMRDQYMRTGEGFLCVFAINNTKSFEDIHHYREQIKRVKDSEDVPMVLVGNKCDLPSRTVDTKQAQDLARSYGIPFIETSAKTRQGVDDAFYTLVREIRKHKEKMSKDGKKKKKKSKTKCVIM

G12D_exchange (KRAS G12D) | G12V_exchange (KRAS G12V) | IC50 (KRAS G12V) [nM] | SMILES
† | † |  | Cc1nc2c(F)c(-c3cccc(Cl)c3Cl)c(CCC#N)cc2c2c1cc([C@@H](C)N1CCCN(c3ccnc(N)c3)C1=O)n2[C@H]1[C@H]2CN[C@@H]1C2 [Example 32, 3-(2-((R)-1-(3-(2-aminopyridin-4-yl)-2-oxotetrahydropyrimidin-1(2H)-yl)ethyl)-1-((1R,4R,5S)-2-azabicyclo[2.1.1]hexan-5-yl)-7-(2,3-dichlorophenyl)-6-fluoro-4-methyl-1H-pyrrolo[3,2-c]quinolin-8-yl)propanenitrile]
† |  | 100 to 1000 | Cc1nc2c(F)c(-c3cccc(Cl)c3Cl)c(CCC#N)cc2c2c1cc([C@@H](C)N1CCCN(c3cc[nH]c(=O)c3)C1=O)n2[C@H]1[C@H]2CN[C@@H]1C2 [Example 37, 3-(1-((1R,4R,5S)-2-azabicyclo[2.1.1]hexan-5-yl)-7-(2,3-dichlorophenyl)-6-fluoro-4-methyl-2-((R)-1-(2-oxo-3-(2-oxo-1,2-dihydropyridin-4-yl)tetrahydropyrimidin-1(2H)-yl)ethyl)-1H-pyrrolo[3,2-c]quinolin-8-yl)propanenitrile]
† | † |  | CC(=O)NCc1cccc(N2CCCN([C@H](C)c3cc4c(C)nc5c(F)c(-c6cccc(Cl)c6Cl)c(CCC#N)cc5c4n3[C@H]3[C@H]4CN[C@@H]3C4)C2=O)c1 [Example 28, N-(3-(3-((1R)-1-(1-((1R,4R,5S)-2-azabicyclo[2.1.1]hexan-5-yl)-8-(2-cyanoethyl)-7-(2,3-dichlorophenyl)-6-fluoro-4-methyl-1H-pyrrolo[3,2-c]quinolin-2-yl)ethyl)-2-oxotetrahydropyrimidin-1(2H)-yl)benzyl)acetamide]
† |  | 100 to 1000 | Cc1nc2c(F)c(-c3cccc(Cl)c3Cl)c(CCC#N)cc2c2c1cc([C@@H](C)N1CCCN(c3ccc(C#N)cc3)C1=O)n2[C@H]1[C@H]2CN[C@@H]1C2 [Example 25, 4-(3-((1R)-1-(1-((1R,4R,5S)-2-azabicyclo[2.1.1]hexan-5-yl)-8-(2-cyanoethyl)-7-(2,3-dichlorophenyl)-6-fluoro-4-methyl-1H-pyrrolo[3,2-c]quinolin-2-yl)ethyl)-2-oxotetrahydropyrimidin-1(2H)-yl)benzonitrile]
† | † |  | Cc1nc2c(F)c(-c3cccc(Cl)c3Cl)c(CCC#N)cc2c2c1cc([C@@H](C)N1CCCN(c3cncnc3)C1=O)n2[C@H]1[C@H]2CN[C@@H]1C2 (single isomer, unassigned) [Example 10]
† | † |  | Cc1nc2c(F)c(-c3cccc(Cl)c3Cl)c(CCC#N)cc2c2c1cc([C@@H](C)N1CCCN(c3cncnc3)C1=O)n2[C@H]1[C@H]2CN[C@@H]1C2 [Example 34, 3-(1-((1R,4R,5S)-2-azabicyclo[2.1.1]hexan-5-yl)-7-(2,3-dichlorophenyl)-6-fluoro-4-methyl-2-((R)-1-(2-oxo-3-(pyrimidin-5-yl)tetrahydropyrimidin-1(2H)-yl)ethyl)-1H-pyrrolo[3,2-c]quinolin-8-yl)propanenitrile]
† | † |  | Cc1nc2c(F)c(-c3cccc(Cl)c3Cl)c(CCC#N)cc2c2c1cc([C@@H](C)N1CCCN(c3ccc(F)cc3)C1=O)n2[C@H]1[C@H]2CN[C@@H]1C2 [Example 18, 3-(1-((1R,4R,5S)-2-azabicyclo[2.1.1]hexan-5-yl)-7-(2,3-dichlorophenyl)-6-fluoro-2-((R)-1-(3-(4-fluorophenyl)-2-oxotetrahydropyrimidin-1(2H)-yl)ethyl)-4-methyl-1H-pyrrolo[3,2-c]quinolin-8-yl)propanenitrile]
† |  | 100 to 1000 | Cc1cc(N2CCCN([C@H](C)c3cc4c(C)nc5c(F)c(-c6cccc(Cl)c6Cl)c(CCC#N)cc5c4n3[C@H]3[C@H]4CN[C@@H]3C4)C2=O)ccn1 [Example 26, 3-(1-((1R,4R,5S)-2-azabicyclo[2.1.1]hexan-5-yl)-7-(2,3-dichlorophenyl)-6-fluoro-4-methyl-2-((R)-1-(3-(2-methylpyridin-4-yl)-2-oxotetrahydropyrimidin-1(2H)-yl)ethyl)-1H-pyrrolo[3,2-c]quinolin-8-yl)propanenitrile]
† |  | 100 to 1000 | Cc1nc2c(F)c(-c3cccc(Cl)c3Cl)c(CCC#N)cc2c2c1cc([C@@H](C)N1CCCN(c3ccnnc3)C1=O)n2[C@H]1[C@H]2CN[C@@H]1C2 [Example 9, 3-(1-((1R,4R,5S)-2-azabicyclo[2.1.1]hexan-5-yl)-7-(2,3-dichlorophenyl)-6-fluoro-4-methyl-2-((R)-1-(2-oxo-3-(pyridazin-4-yl)tetrahydropyrimidin-1(2H)-yl)ethyl)-1H-pyrrolo[3,2-c]quinolin-8-yl)propanenitrile]
† | † |  | Cc1nc2c(F)c(-c3cccc(Cl)c3Cl)c(CCC#N)cc2c2c1cc([C@@H](C)N1CCCN(c3ccnc4sccc34)C1=O)n2[C@H]1[C@H]2CN[C@@H]1C2 [Example 38, 3-(1-((1R,4R,5S)-2-azabicyclo[2.1.1]hexan-5-yl)-7-(2,3-dichlorophenyl)-6-fluoro-4-methyl-2-((R)-1-(2-oxo-3-(thieno[2,3-b]pyridin-4-yl)tetrahydropyrimidin-1(2H)-yl)ethyl)-1H-pyrrolo[3,2-c]quinolin-8-yl)propanenitrile]
† |  | 100 to 1000 | Cc1nc2c(F)c(-c3cccc(Cl)c3Cl)c(CCC#N)cc2c2c1cc([C@@H](C)N1CCCN(c3ccnc(C#N)c3)C1=O)n2[C@H]1[C@H]2CN[C@@H]1C2 [Example 29, 4-(3-((1R)-1-(1-((1R,4R,5S)-2-azabicyclo[2.1.1]hexan-5-yl)-8-(2-cyanoethyl)-7-(2,3-dichlorophenyl)-6-fluoro-4-methyl-1H-pyrrolo[3,2-c]quinolin-2-yl)ethyl)-2-oxotetrahydropyrimidin-1(2H)-yl)picolinonitrile]
† | † |  | Cc1nc2c(F)c(-c3cccc(Cl)c3Cl)c(CCC#N)cc2c2c1cc([C@@H](C)N1CCCN(c3ccncc3F)C1=O)n2[C@H]1[C@H]2CN[C@@H]1C2 [Example 21, 3-(1-((1R,4R,5S)-2-azabicyclo[2.1.1]hexan-5-yl)-7-(2,3-dichlorophenyl)-6-fluoro-2-((R)-1-(3-(3-fluoropyridin-4-yl)-2-oxotetrahydropyrimidin-1(2H)-yl)ethyl)-4-methyl-1H-pyrrolo[3,2-c]quinolin-8-yl)propanenitrile]
† | † |  | Cc1nc2c(F)c(-c3cccc(Cl)c3Cl)c(CCC#N)cc2c2c1cc([C@@H](C)N1CCCN(c3cccnc3)C1=O)n2[C@H]1[C@H]2CN[C@@H]1C2 [Example 23, 3-(1-((1R,4R,5S)-2-azabicyclo[2.1.1]hexan-5-yl)-7-(2,3-dichlorophenyl)-6-fluoro-4-methyl-2-((R)-1-(2-oxo-3-(pyridin-3-yl)tetrahydropyrimidin-1(2H)-yl)ethyl)-1H-pyrrolo[3,2-c]quinolin-8-yl)propanenitrile]
† |  | 100 to 1000 | Cc1nc2c(F)c(-c3cccc(Cl)c3Cl)c(CCC#N)cc2c2c1cc([C@@H](C)N1CCCN(c3cccc(F)n3)C1=O)n2[C@H]1[C@H]2CN[C@@H]1C2 [Example 41, 3-(1-((1R,4R,5S)-2-azabicyclo[2.1.1]hexan-5-yl)-7-(2,3-dichlorophenyl)-6-fluoro-2-((R)-1-(3-(6-fluoropyridin-2-yl)-2-oxotetrahydropyrimidin-1(2H)-yl)ethyl)-4-methyl-1H-pyrrolo[3,2-c]quinolin-8-yl)propanenitrile]
† |  |  | Cc1nc2c(F)c(-c3cccc(Cl)c3Cl)c(CCC#N)cc2c2c1cc([C@@H](C)N1CCCN(c3ccnnc3)C1=O)n2[C@H]1[C@H]2CN[C@@H]1C2 [Example 35, 3-(1-((1R,4R,5S)-2-azabicyclo[2.1.1]hexan-5-yl)-7-(2,3-dichlorophenyl)-6-fluoro-4-methyl-2-((R)-1-(2-oxo-3-(pyridazin-4-yl)tetrahydropyrimidin-1(2H)-yl)ethyl)-1H-pyrrolo[3,2-c]quinolin-8-yl)propanenitrile]
